The test system of assay [1] is PCP site 2. Type of assay: binding, guinea pig. As to the method: (§1) Large batches of frozen membranes were prepared with minor modifications of published procedures (Rothman, et al. (1989), supra). Twenty to thirty frozen guinea pig brains with cerebellum were thawed for 15 minutes and homogenized with a Polytron in ice-cold 5 mM Tris-HCl, pH 8.0 (10 ml/brain). The homogenate was centrifuged at 37,000×g for 10 minutes, and the pellet was washed by resuspension in the same volume of buffer followed by recentrifugation. The pellets were resuspended in an equal volume of 5 mM Tris-HCl, pH 8.0, and the concentration was adjusted to 50 mM by the addition of 1M Tris-HCl, pH 8.0. The homogenate was centrifuged for 10 min at 37,000×g. The pellets were then washed three times by resuspension and centrifugation using 50 mM Tris-HCl, pH 8.0. The final pellets were resuspended in the Tris-HCl buffer (0.5 ml/brain), pooled and 1 ml aliquots were distributed to microfuge tubes, which were stored at -70° for assay.
The [^3 H]TCP binding assay for PCP site 2 was conducted with minor modifications of published protocols (Rothman, et al. (1989), supra). Briefly, 12×75 mm polystyrene test tubes were prefilled with 100 μl of [^3 H]TCP (2 nM final concentration) in a protease inhibitor cocktail (PIC) containing 5000 nM (+) -MK801, 100 μl of distilled H2 O or drug (in distilled H2 0), 50 μl of buffer (5 mM Tris-HCL, pH 8.0), and 750 μl of membrane (0.5-1.0 mg/ml protein, in 5 mM Tris-HCl, pH 8.0). […] The protease inhibitor cocktail was composed of 25 μg/ml leupeptin, 25 μg/ml chymostatin, 0.1 mM EDTA, and 0.1 mM ethylene glycol-bis-(beta-aminoethyl-ether)-N,N,N',N'-tetraacetic acid (EGTA). The incubation time was 18-24 hours at 4° C. (steady state) in a final volume of 1 ml. Triplicate samples were filtered with an MR24 Brandel Cell Harvester and washed with two 5 ml aliquots of ice cold buffer. Whatman GF/B filters were presoaked in buffer containing 2% polyethylenimine. The tritium retained on the filters was measured using a Taurus scintillation counter at 44% efficiency after an overnight extraction into ICN Cytoscint cocktail. Non specific binding was determined using 10 μM of TCP. Protein was determine using the method of Lowry, et al., supra.
(§2) Inhibition curves were fit to the two parameter logistic equation for the best-fit estimates of the IC50 using nonlinear least squares curve fitting methods as previously described (Rothman et al. (1993), supra); Jones, S. M. and Rogawski, M. A. Mol. Neuropharmacol. 2: 303-310 (1992)).
(§3) ^a The binding assays for PCP (site 2) and PCP (site 1) were conducte
(§4) as previously reported (Rothman, R. B., et al., In: Multiple Sigma and PC
(§5) Receptor Ligands: Mechanisms for Neuromodulation and Protection 307-330
(§6) (Domino, E. F. and Kamenka, J. M., eds., 1992) using [^3 H]TCP in the
(§7) presence of (+)MK801 for site 2 and [^3 HMK801 for site 1 except that
the [^3 H]TCP assays were terminated after 18-24 hours of incubation

Assay [2] concerns the target PCP site 1. As to the kind of experiment: [^3 H](+)-MK801 binding to PCP site 1. Details: species or system guinea pig. The procedure: as §1, with “assay. […]” for “assay.”
as §2, §3, §4, §5, §6, §7

Assay [3] has as its system PCP site 2. To be noted: guinea pig brain membranes; literature; cited from earlier work.
Where [4] appears, read: Table 1, [^3 H]TCP in presence of (+)MK801, 18-24 hours at 4° C.

Structures are written as SMILES. Where “and” joins values, the source holds several entries; their conditions need not be identical. Equal values may be shown once. Where a name gives a salt, the structure may show the parent alone. Read-outs that look alike come from different tables or passages of the source. Where only a bound is given, the exact number is not on record here.

Consider 18 compounds from patent publication US5747503A, “Selective inhibitors of biogenic amine transporters” (priority 1996, dated 1998).

With `CN1[C@@H](Cc2ccc(Cl)cc2)C[C@@H]2Cc3ccccc3[C@@H]21` (racemic) [RTI-4793-45, (2RS,3aSR,8bRS)-1,2,3,3a,4,8b-Hexahydro-2-(4-chlorobenzyl)-1-methylindeno-[1,2-b]pyrrole Hydrochloride], the half-inhibitory concentration (IC50) in assay [1] (Table 3, guinea pig membranes) is 254 ± 18 nM; in assay [2] (Table 3, guinea pig membranes) it was above 2000 nM.

On to `CN1CC[C@@H]2Cc3ccccc3[C@@H]21` (relative stereo) [3a], for which the “affinity/selectivity for PCP site 2 in words” value (“affinity/selectivity” for short) in assay [1] is recorded as “low affinity at both sites”. Also, the IC50 in assay [1] (setting [4]) is above 10000 nM; in assay [2] (Table 1, [^3 H]MK801), above 20000 nM. In assay [2], the “affinity for PCP site 1 in words” value is given as “low affinity at both sites”.

For `CCOC(=O)[C@H]1C[C@@H]2Cc3ccccc3[C@@H]2N1C` (relative stereo) [3d], the IC50 was 16700 nM in assay [1] (setting [4]) and above 20000 nM in assay [2] (Table 1, [^3 H]MK801).

As to `CC[C@H]1C[C@@H]2Cc3ccccc3[C@@H]2N1C` (relative stereo) [3e], the IC50 in assay [1] (setting [4]) is 326 ± 49 nM; in assay [2] (Table 1, [^3 H]MK801), above 20000 nM. Further, the “relative potency for site 2 versus 3b” value in assay [1] (versus 3b) is recorded as “approximately ten-times less than that of 3b”. For the same compound, the “affinity for PCP site 1 in words” value in assay [2] was “low affinity at both sites”.

For the compound `CN1[C@H](Cc2c[nH]c3ccccc23)C[C@H]2Cc3ccccc3[C@H]21` (relative stereo) [RTI-4793-44, (2RS, 3aSR, 8bRS) -1,2,3,3a, 4,8b-Hexahydro-2-(3-methanoindole)-1-methylindeno-[1,2-b]pyrrole Hydrochloride], the IC50 in assay [1] (Table 3, guinea pig membranes) is 114 ± 12 nM; in assay [2] (Table 3, guinea pig membranes), above 2000 nM.

With `COc1ccc(C[C@@H]2C[C@H]3Cc4ccccc4[C@H]3N2C)cc1` (relative stereo) [RTI-4793-46, (2RS,3aSR,8bRS)-1,2,3,3a,4,8b-Hexahydro-2-(4-methoxybenzyl)-1-methylindeno[1,2-b1pyrrole Hydrochloride], the IC50 was 148 ± 23 nM in assay [1] (Table 3, guinea pig membranes) and above 2000 nM in assay [2] (Table 3, guinea pig membranes).

For the compound `c1ccc(CC2CC3CN2Cc2ccccc23)cc1` (single isomer, unassigned; (+)) [(+)-RTI-4793-41], the IC50 in assay [1] (Table 3, guinea pig membranes) was 4.4 ± 0.7 nM; in assay [1] (Table 3, guinea pig membranes, listed as (+) optical isomer of RTI-4793-41) it was 4.4 nM; in assay [2] (Table 3, guinea pig membranes), above 2000 nM.

Take `c1ccc(CC2CC3CN2Cc2ccccc23)cc1` (single isomer, unassigned; (-)) [(-)-RTI-4793-41]: the IC50 in assay [1] (Table 3, guinea pig membranes) is 28.9 ± 3 nM; in assay [2] (Table 3, guinea pig membranes) it was above 2000 nM.

On to `CN1[C@@H](Cc2ccccc2)C[C@@H]2Cc3ccccc3[C@@H]21.O=C(O)c1ccc(O)cc1O` [(-)-RTI-4793-14], for which the IC50 in assay [1] (Table 3, guinea pig membranes) was 316 ± 58.7 nM; in assay [2] (Table 3, guinea pig membranes) it was above 2000 nM.

Regarding `c1ccc(CC2CC3CN2Cc2ccccc23)cc1` (stereo not drawn) [RTI-4793-41], the “affinity/selectivity” value in assay [1] was “high affinity and selectivity”. For the same compound, the IC50 is 15 nM and 15.6 nM in assay [1] (Table 3, guinea pig membranes); above 2000 nM in assay [2] (Table 3, guinea pig membranes).

`BrC1CC2CN(Cc3ccccc32)C1c1ccccc1` (stereo not drawn) [RTI-4793-47]: the half-maximal inhibitory concentration (IC50) in assay [1] (Table 3, guinea pig membranes) was 68.8 ± 11.5 nM; in assay [2] (Table 3, guinea pig membranes), above 2000 nM.

Regarding `c1ccc(C2CCC3CN2Cc2ccccc23)cc1` (stereo not drawn) [RTI-4793-48], the “affinity/selectivity” value in assay [1] is “high affinity and selectivity”. The IC50 was 42 nM and 42.3 nM in assay [1] (Table 3, guinea pig membranes); above 2000 nM in assay [2] (Table 3, guinea pig membranes).

On to `COc1ccc(CC2CC3CN2Cc2ccccc23)cc1` (stereo not drawn) [RTI-4793-49], for which the IC50 in assay [1] (Table 3, guinea pig membranes) is 106 ± 13.8 nM; in assay [2] (Table 3, guinea pig membranes) it was above 2000 nM.

With `Fc1ccc(CC2CC3CN2Cc2ccccc23)cc1` (stereo not drawn) [RTI-4793-50], the IC50 was 73.5 ± 9 nM in assay [1] (Table 3, guinea pig membranes) and above 2000 nM in assay [2] (Table 3, guinea pig membranes).

Turning to `c1ccc(CCC2CC3CN2Cc2ccccc23)cc1` (stereo not drawn) [RTI-4793-51], the IC50 was 289 ± 22 nM in assay [1] (Table 3, guinea pig membranes) and above 2000 nM in assay [2] (Table 3, guinea pig membranes).

As to `c1ccc(CCCCC2CC3CN2Cc2ccccc23)cc1` (stereo not drawn) [RTI-4793-52], the concentration for half-maximal inhibition (IC50) is 302 ± 28 nM in assay [1] (Table 3, guinea pig membranes) and above 2000 nM in assay [2] (Table 3, guinea pig membranes).

With `c1csc(CC2CC3CN2Cc2ccccc23)c1` (stereo not drawn) [RTI-4793-55], the IC50 in assay [1] (Table 3, guinea pig membranes) is 43.2 ± 6.58 nM; in assay [2] (Table 3, guinea pig membranes), above 2000 nM.

As for `c1csc(C2(N3CCCCC3)CCCCC2)c1` [TCP], the “binding of [^3 H]TCP to two sites (PCP site 1 and PCP site 2)” value in assay [3] is recorded as “high affinity”.
